In patent US12673987B2, “Method to identify compounds useful to treat dysregulated lipogenesis, diabetes, and related disorders” (President and Fellows of Harvard College, priority 2017, dated 2026):

What was measured:
[1] = tested on: AMPK(Thr172); test: AMPK phosphorylation in HepG2 cells by western blot; type: cell-based, human; conditions: 5 μM alone
Method: (§1) For maintenance, HepG2 cells were cultured in DMEM containing 5.5 mM glucose (Gibco) supplemented with 10% FBS. For DNL and p-AMPK analysis, HepG2 cells were cultured in DMDM 3.3 mM glucose supplemented with 0.5% FBS, seeded 2×10^5 cells in 12 well plate or 4×10^5 cells in 6 well plate for DNL analysis and p-AMPK analysis, respectively.
(§2) For DNL analysis, after overnight culture, the cells were stimulated with conditioned media or 2-AG/aP2 complex and […] of ^3H2O were added 30 min after the stimulation (Gnoni et al., (1985) Biochem. & Biophysical Res. Comm. 128, 525-530; Lowenstein et al., Meth. Enzym. 35, 279-287). After 2 hours of incubation with ^3H2O, cells were washed with PBS and lysed with 0.1N NaOH. The cell lysate was analyzed for protein concentration and total lipid was extracted by Dole's extraction method (Dole et al., (1960) J. Biol. Chem. 235, 2595-2599). ^3H incorporation into de novo synthesized lipids were analyzed by scintillation count and calculated as count per μg protein. […] AMPK phosphorylation was determined by western blot (see below).
The antibodies used were rabbit anti-pAMPK (Cell Signaling), anti-actin HRP conjugated (Abcam), in-house anti-aP2 (H3) HRP conjugated antibodies. For quantification, Western blot images were captured and band intensities were analyzed using ImageJ software.

[2] = molecular target: T1, aP2 (Mus musculus, UniProt P04117); test: 8-Anilinonaphthalene-1-sulfonic acid (ANS) binding assay; set-up: His tag (cleaved yes); made in house; host or cells: Escherichia coli BL21DE3 (Pet28a plasmid)
T1 sequence (P04117 1-132): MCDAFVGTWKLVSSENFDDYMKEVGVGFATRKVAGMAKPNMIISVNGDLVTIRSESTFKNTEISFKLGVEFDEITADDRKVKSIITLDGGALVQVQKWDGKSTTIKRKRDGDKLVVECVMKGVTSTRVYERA
Method: (§3) 10 or 20 μM delipidated mouse recombinant aP2 protein with or without 10 μM 2-AG were diluted in 50 mM potassium phosphate buffer (pH 7.4) and incubated at 37C for overnight. The ratio of aP2 binding to 2-AG was determined by 8-Anilinonaphthalene-1-sulfonic acid (ANS) assay. For antibody neutralization, IgG, CA33, or CA15 antibody at final concentration of 20 μM was added to 50 mM potassium phosphate buffer (pH 7.4) only or to delipidated mouse recombinant aP2 protein (final 10 μM) with 2-AG (final 10 μM) solution in 50 mM potassium phosphate buffer (pH 7.4) and incubated at 37° C. overnight. Final concentration in culture media for aP2, 2-AG, and antibodies were 10, 10, and 20 nM, respectively.
aP2 or aP2/lipid solution (final aP2 concentration 1 μM) and ANS (final 5 μM) was diluted in 50 mM potassium phosphate buffer (pH 7.4) and fluorescence Ex/Em 375/475 was measured.

[3] = tested on: HepG2 cells; test: DNL in HepG2 cells stimulated with 2-AG/aP2 complex (3H2O incorporation); type: cell-based, human; conditions: for stimulation of DNL in HepG2 cells: final concentration in culture media 10 nM
Method: as §1
For DNL analysis, after overnight culture, the cells were stimulated with conditioned media or 2-AG/aP2 complex and […] of ^3H2O were added 30 min after the stimulation (Gnoni et al., (1985) Biochem. & Biophysical Res. Comm. 128, 525-530; Lowenstein et al., Meth. Enzym. 35, 279-287). After 2 hours of incubation with ^3H2O, cells were washed with PBS and lysed with 0.1N NaOH. The cell lysate was analyzed for protein concentration and total lipid was extracted by Dole's extraction method (Dole et al., (1960) J. Biol. Chem. 235, 2595-2599). ^3H incorporation into de novo synthesized lipids were analyzed by scintillation count and calculated as count per μg protein. For p-AMPK analysis, after overnight culture, cells were stimulated with conditioned media or 2-AG/aP2 complex for 30 min. The cells were washed twice with ice cold PBS and lysed with ice cold RIPA buffer (Cell Signaling) supplemented with 1 mM PMSF. AMPK phosphorylation was determined by western blot (see below).
as §3

[4] = tested on: 3T3L1 adipocytes; test: FFA release from 3T3L1 adipocytes; type: cell-based, murine; conditions: adipocytes pretreated with 10 μM, starting 48 hours before collection of conditioned media
Method: (§4) Murine 3T3L1 adipocytes and human HepG2 cells were obtained from the ATCC. 3T3L1 adipocytes were maintained in Dulbecco Modified Eagle Medium (DMEM) containing 25 mM glucose (Gibco) supplemented with 10% cosmic calf serum (CCS), and adipocyte differentiation was induced as previously described (Ntambi et al., (1988) J. Biol. Chem. 263, 17291-17300). Briefly, preadipocytes were grown in 10 cm dishes until they are fully confluent. At confluent state, 10% bovine calf serum (BCS) containing DMEM medium was replaced with 10% fetal bovine serum (FBS) containing DMEM for two days. Differentiation was induced by FBS medium containing 5 μg/ml Insulin (Sigma, 15500), 0.5 mM IBMX (Sigma, 15879), 1 μM Dexamethasone (Sigma, D4902), and 1 μM Rosiglitazone (Cayman Chemical, 71740). After two days, medium was replaced with FBS medium containing 5 μg/ml Insulin every other day until the cells were completely differentiated at day 10. For siRNA experiment, differentiated 3T3-L1 adipocytes were transfected using Amaxa Nucleofector Kit L (Lonza, VCA-1005) according to the manufacturer's protocol. […]
Triglyceride (TG) levels were analyzed using triglyceride assay kit (Randox) and Cholesterol levels were analyzed using by Infinity cholesterol kid (Thermo Scientific). FFA levels in culture media were measured using a NEFA-HR2 kit (Wako) following the manufacturer's instructions.

[5] = tested on: HepG2 cells; test: De novo lipogenesis (DNL) in HepG2 cells treated with conditioned media from lipolysis-stimulated adipocytes (3H2O incorporation); type: cell-based, human
Method: Murine 3T3L1 adipocytes and human HepG2 cells were obtained from the ATCC. 3T3L1 adipocytes were maintained in Dulbecco Modified Eagle Medium (DMEM) containing 25 mM glucose (Gibco) supplemented with 10% cosmic calf serum (CCS), and adipocyte differentiation was induced as previously described (Ntambi et al., (1988) J. Biol. Chem. 263, 17291-17300). Briefly, preadipocytes were grown in 10 cm dishes until they are fully confluent. At confluent state, 10% bovine calf serum (BCS) containing DMEM medium was replaced with 10% fetal bovine serum (FBS) containing DMEM for two days. Differentiation was induced by FBS medium containing 5 μg/ml Insulin (Sigma, 15500), 0.5 mM IBMX (Sigma, 15879), 1 μM Dexamethasone (Sigma, D4902), and 1 μM Rosiglitazone (Cayman Chemical, 71740). After two days, medium was replaced with FBS medium containing 5 μg/ml Insulin every other day until the cells were completely differentiated at day 10. For siRNA experiment, differentiated 3T3-L1 adipocytes were transfected using Amaxa Nucleofector Kit L (Lonza, VCA-1005) according to the manufacturer's protocol. Briefly, differentiated adipocytes were trypsinized and centrifuged at 100 g for 10 minutes. 3×10^6 cells per 6-well were transfected with 120 pmol/sample Control siRNA (Dharmacon, D-001810-10) or mouse aP2 siRNA (Dharmacon, L-042923-01) using Nucleofector Program A-33. Transfected cells were seeded in Collagen I coated 6-well plates (Corning, 356400). Conditioned media for stimulation of HepG2 cells were prepared in DMDM 3.3 mM glucose supplemented with 0.5% FBS before (basal) and after (lipolysis stimulated) the lipolysis stimulation with 1 mM IBMX. For explant studies, adipose tissue was removed from 8-12 weeks-old littermate mice, minced and washed 5× with DMEM high glucose supplemented with 10% CCS. Twenty pieces of adipose tissue were placed into 6-well plates in 2 ml DMEM high glucose with 10% CCS and incubated for 1 hr. Then conditioned media for stimulation of HepG2 cells were prepared in […] 3.3 mM glucose supplemented with 0.5% FBS before (basal) and after (lipolysis stimulated) the lipolysis stimulation with 1 mM 3-isobutyl-1-methylxanthine (IBMX). For antibody neutralization, 10 nM (for 3T3L1 cells) or 20 nM (for adipose tissue explant) of IgG, CA33, or CA15 antibody was added to DMDM 3.3 mM glucose supplemented with 0.5% FBS was used for the preparation of “basal” and “lipolysis stimulated” conditioned media.
as §1
as §2, with “After 2 hours of incubation with ^3H2O, cells were washed with PBS and lysed with 0.1N NaOH.” left out

[6] = tested on: 3T3L1 adipocytes; test: aP2 secretion from 3T3L1 adipocytes into conditioned media; type: cell-based, murine; conditions: adipocytes pretreated with 10 μM, starting 48 hours before collection of conditioned media
Method: as §4, with “protocol. Briefly, differentiated adipocytes were trypsinized and centrifuged at 100 g for 10 minutes. 3×10^6 cells per 6-well were transfected with 120 pmol/sample Control siRNA (Dharmacon, D-001810-10) or mouse aP2 siRNA (Dharmacon, L-042923-01) using Nucleofector Program A-33.” for “protocol.”

[7] = molecular target: T1, aP2; test: Microscale thermophoresis assay; type: binding; set-up: His tag (cleaved yes); made in house; conditions: fluorescence labeled purified aP2 protein
Method: It has been reported that both 2-AG and AEA have similar affinity for the CB1 receptor (Stella et al., (1997) Nature 388, 773-778; Felder et al., (1993) PNAS 90, 7656-7660), and only the level of 2-AG in serum is regulated in obesity (Bluher et al., (2006) Diabetes 55, 3053-3060). The potential interaction between 2-AG and aP2 was tested. […] Finally, to resolve the mechanism and structural determinants of this interaction, aP2 and 2-AG was co-crystallized, confirming the ability of these two molecules to bind. In Ca superposition, the root mean square deviation (RMSD) between mouse 2-AG/FABP4 complex and apo mouse FABP4 structure was about 0.548 A (see FIG. 3G). […] Due to steric hindrance of the acyl chain of 2-AG, the Phe57 side chain was modelled as open position in the complex structure. The polar head group of 2-AG was stabilized by hydrogen bond interactions with R127, R107, Y129 and S54 of FABP4 (see FIG. 3H).

CCCCC/C=C\C/C=C\C/C=C\C/C=C\CCCC(=O)OC(CO)CO [2-AG, 2-Arachidonoylglycerol]
dephosphorylation of AMPK(Thr172) in HepG2 cells [1]: same level
binding of 2-AG to aP2 by ANS assay ([2]; after overnight incubation of delipidated recombinant aP2 with 2-AG): confirmed binding
binding affinity of aP2 to the lipid, substrate competition with ANS ([2]; compared with mall (Fabp5)): same affinity as does mall
stimulation of DNL in HepG2 cells [3]: nor 2-AG alone stimulated DNL

CCc1c(-c2ccccc2)c(-c2ccccc2)nn1-c1ccccc1-c1cccc(OCC(=O)O)c1 [BMS-309403]
FFA secretion [4]: did not alter
ability of conditioned media from lipolysis-stimulated 3T3L1 adipocytes to induce DNL in HepG2 cells ([5]; 3T3L1 adipocytes pretreated with 10 μM, starting 48 hours before collection): completely inhibited
effect on DNL in HepG2 cells treated with conditioned media from Fabp-deficient adipocytes ([5]; Fabp-deficient adipocytes pre-incubated with 10 μM): no additional or Fabp-independent effect on DNL
effect of 2-AG/aP2 complex on DNL in HepG2 cells ([3]; added during 2-AG/aP2 complex formation): eliminated the effect of 2-AG/aP2 complex on DNL
aP2 secretion [6]: did not alter

Cc1c(C(=O)NN2CCCCC2)nn(-c2ccc(Cl)cc2Cl)c1-c1ccc(Cl)cc1 [Rimonabant]
induction of DNL by conditioned media from lipolysis-stimulated 3T3L1 adipocytes ([5]; HepG2 cells treated with 1 μM): completely inhibited induction of DNL

CCCCCCCC/C=C\CCCCCCCC(=O)O [oleate]
Kd of direct binding to aP2 [7]: an affinity similar to that observed for oleate

B1: CA33: therapeutically active aP2 monoclonal antibody; the rabbit 909 heavy and light chain comprise CA33 (antibody, V domains shown)
VH: QSVEESGGRLVTPGTPLTLTCTVSGFSLSTYYMSWVRQAPGKGLEWIGIIYPSGSTYCASWAKGRFTISKASTTVDLKITSPTTEDTATYFCARPDNDGTSGYLSGFGLWGQGTLVTVSS
VL: DVVMTQTPASVSEPVGGTVTIKCQASEDISRYLVWYQQKPGQPPKRLIYKASTLASGVPSRFKGSGSGTDFTLTISDLECDDAATYYCQCTYGTYAGSFFYSFGGGTEVVVE
modifications: Rabbit Ab 909 VH region; Rabbit Ab 909 VL-region
induction of DNL by conditioned media from lipolysis stimulated adipocytes in HepG2 cells ([5]; antibody (10 nM for 3T3L1 cells) added to conditioned media, IBMX lipolysis stimulation): completely prevented the induction of DNL
ability of 2-AG/aP2 complex to regulate DNL in HepG2 cells ([3]; complex formed in the presence of antibody (20 μM, final 20 nM in culture media)): lost its ability to regulate DNL

B2: aP2: delipidated mouse recombinant aP2 protein (adipocyte lipid binding protein) (protein)
chain: CDAFVGTWKLVSSENFDDYMKEVGVGFATRKVAGMAKPNMIISVNGDLVTIRSESTFKNTEISFKLGVEFDEITADDRKVKSIITLDGGALVQVQKWDGKSTTIKRKRDGDKLVVECVMKGVTSTRVYERA
rescue of DNL in HepG2 cells ([5]; added to conditioned media from 3T3L1 adipocytes with siRNA-mediated aP2 suppression): not sufficient to rescue DNL
stimulation of DNL in HepG2 cells [3]: neither aP2 nor 2-AG alone stimulated DNL
